The values below come from the Kinase Knowledgebase extract (Sharma et al. 2016).

The experiment has as its target PIK3CB;PIK3CG;PIK3CD;PIK3CA (human) (UniProt P48736). Briefly: Inhibition of PIK3CA/PIK3CB/PIK3CD/PIK3CG Kinase Activity.

As usually defined, the IC50 is the concentration at which inhibition is half-maximal. Low readings indicate inhibition by little substance, high ones a need for much substance. Consider `CNc1cc(C(=O)O)nc2c(-c3cccc(F)c3O)nc(N3CCOCC3)nc12`, for which the IC50 was determined as 48 nM.

`O=C(O)c1cc(Cl)c2nc(N3CCOCC3)nc(-c3cccc(O)c3)c2n1` came in with an IC50 of 108 nM. For the compound `COCCN(C)c1cc(C(=O)O)nc2c(-c3ccc(F)cc3O)nc(N3CCOCC3)nc12`, the IC50 is 62 nM. Compound `Cc1cc(O)ccc1-c1nc(N2CCOCC2)nc2c(N(C)CCO)cc(C(=O)O)nc12` displayed an IC50 of 936 nM.

As to `COCCN(C)c1cc(C(=O)O)nc2c(-c3cc(F)cc(F)c3)nc(N3CCOCC3)nc12`, the IC50 turned out to be 1290 nM. `CN(C)CCN(C)c1cc(C(=O)O)nc2c(-c3cc(F)ccc3O)nc(N3CCOCC3)nc12` returned an IC50 of 564 nM. Under `COCCN(C)c1cc(C(=O)O)nc2c(-c3cccc(O)c3)nc(N3CCOCC3)nc12` stands 28 nM. Under `COCCNc1cc(C(=O)O)nc2c(-c3cccc(F)c3O)nc(N3CCOCC3)nc12` stands 18 nM; under `CN(C)c1cc(C(=O)O)nc2c(-c3cc(F)ccc3O)nc(N3CCOCC3)nc12`, 66 nM. The figure for `CN(CCO)c1cc(C(=O)O)nc2c(-c3cccc(CO)c3)nc(N3CCOCC3)nc12` is 74 nM. Compound `CNc1cc(C(=O)O)nc2c(-c3cc(F)ccc3O)nc(N3CCOCC3)nc12` registered an IC50 of 304 nM. On to `O=C(O)c1cc(NCCO)c2nc(N3CCOCC3)nc(-c3cccc(O)c3)c2n1`, for which the IC50 is 75 nM. Under `COCc1cccc(-c2nc(N3CCOCC3)nc3c(N(C)CCO)cc(C(=O)O)nc23)c1` stands 1850 nM; under `CNc1cc(C(=O)O)nc2c(-c3cccc(O)c3)nc(N3CCOCC3)nc12`, 144 nM. Under `O=C(O)c1cc(NCCO)c2nc(N3CCOCC3)nc(-c3cccc(CO)c3)c2n1` stands 27 nM; under `COCCNc1cc(C(=O)O)nc2c(-c3cc(F)ccc3O)nc(N3CCOCC3)nc12`, 73 nM. The figure for `CN(CCO)c1cc(C(=O)O)nc2c(-c3ccc(F)c(CO)c3)nc(N3CCOCC3)nc12` is 303 nM. Compound `CN(C)c1cc(C(=O)O)nc2c(-c3cccc(C#N)c3)nc(N3CCOCC3)nc12` gave an IC50 of 1100 nM. `O=C(O)c1ccc2nc(N3CCOCC3)nc(-c3ccc(O)cc3)c2n1` returned a half-maximal inhibitory concentration (IC50) of 855 nM. The figure for `COCc1cccc(-c2nc(N3CCOCC3)nc3c(N(C)C)cc(C(=O)O)nc23)c1` is 5050 nM. The figure for `CN(C)c1cc(C(=O)O)nc2c(-c3cccc4[nH]ccc34)nc(N3CCOCC3)nc12` is 132 nM. `COCCN(C)c1cc(C(=O)O)nc2c(-c3ccc4[nH]ccc4c3)nc(N3CCOCC3)nc12`: the IC50 amounted to 169 nM. `COCCNc1cc(C(=O)O)nc2c(-c3ccc(F)cc3O)nc(N3CCOCC3)nc12`: the IC50 was determined as 89 nM. The figure for `CN(CCO)c1cc(C(=O)O)nc2c(-c3ccc(F)cc3O)nc(N3CCOCC3)nc12` is 220 nM; for `CN(CCO)c1cc(C(=O)O)nc2c(-c3cccc(F)c3O)nc(N3CCOCC3)nc12` it is 10 nM; for `CN(CCO)c1cc(C(=O)O)nc2c(-c3cccc4[nH]ccc34)nc(N3CCOCC3)nc12` it is 77 nM. The compound `CS(=O)(=O)N1CCN(c2cc(C(=O)O)nc3c(-c4cccc(O)c4)nc(N4CCOCC4)nc23)CC1` registered an IC50 of 15 nM.

In the case of `CS(=O)(=O)c1cc(C(=O)O)nc2c(-c3cc(O)cc(F)c3)nc(N3CCOCC3)nc12`, the IC50 came out at 15 nM. Take `COCCN(C)c1cc(C(=O)O)nc2c(-c3ccc(CO)cc3)nc(N3CCOCC3)nc12`: the IC50 turned out to be 546 nM. The figure for `CN(C)c1cc(C(=O)O)nc2c(-c3ccc(F)c(CO)c3)nc(N3CCOCC3)nc12` is 329 nM; for `CNc1cc(C(=O)O)nc2c(-c3cccc4[nH]ccc34)nc(N3CCOCC3)nc12` it is 780 nM; for `COCCNc1cc(C(=O)O)nc2c(-c3ccc(CO)cc3)nc(N3CCOCC3)nc12` it is 346 nM. The figure for `CN(C)c1cc(C(=O)O)nc2c(-c3ccc(F)cc3O)nc(N3CCOCC3)nc12` is 83 nM. Under `O=C(O)c1cc(NCCO)c2nc(N3CCOCC3)nc(-c3cccc(F)c3O)c2n1` stands 43 nM; under `COCCOc1cc(C(=O)O)nc2c(-c3cccc(O)c3)nc(N3CCOCC3)nc12`, 255 nM; under `COCCN(C)c1cc(C(=O)O)nc2c(-c3cc(O)cc(F)c3)nc(N3CCOCC3)nc12`, 19 nM. In turn, `O=C(O)c1cc(NCCO)c2nc(N3CCOCC3)nc(-c3cc(O)cc(F)c3)c2n1` gave an IC50 of 64 nM. For `COCCNc1cc(C(=O)O)nc2c(-c3cccc(COC)c3)nc(N3CCOCC3)nc12`, the IC50 came out at 1830 nM. The compound `COCCN(C)c1cc(C(=O)O)nc2c(-c3ccc(O)cc3)nc(N3CCOCC3)nc12` yielded an IC50 of 290 nM. Under `CS(=O)(=O)c1cc(C(=O)O)nc2c(-c3cccc(F)c3O)nc(N3CCOCC3)nc12` stands 26 nM; under `CN(C)CCN(C)c1cc(C(=O)O)nc2c(-c3cccc4[nH]ccc34)nc(N3CCOCC3)nc12`, 137 nM. Under `O=C(O)c1ccc2nc(N3CCOCC3)nc(-c3cccc(O)c3)c2n1` stands 63 nM; under `CS(=O)(=O)N1CCN(c2cc(C(=O)O)nc3c(-c4ccccc4)nc(N4CCOCC4)nc23)CC1`, 30 nM. Under `CS(=O)(=O)c1cc(C(=O)O)nc2c(-c3cc(F)ccc3O)nc(N3CCOCC3)nc12` stands 139 nM; under `Cc1cc(C(=O)O)nc2c(-c3cccc(O)c3)nc(N3CCOCC3)nc12`, 225 nM; under `O=C(O)c1cc(NCCO)c2nc(N3CCOCC3)nc(-c3ccc(O)cc3)c2n1`, 732 nM. As for `O=C(O)c1cc(NCCO)c2nc(N3CCOCC3)nc(-c3ccccc3O)c2n1`, the IC50 was 82 nM. The figure for `COCCN(C)c1cc(C(=O)O)nc2c(-c3cccc(F)c3O)nc(N3CCOCC3)nc12` is 9 nM. Under `COc1cccc(-c2nc(N3CCOCC3)nc3ccc(C(=O)O)nc23)c1` stands 4490 nM; under `CS(=O)(=O)c1cc(C(=O)O)nc2c(-c3ccc(O)c(F)c3)nc(N3CCOCC3)nc12`, 335 nM. The figure for `COc1cccc(-c2nc(N3CCOCC3)nc3c(Cl)cc(C(=O)O)nc23)c1` is 1080 nM; for `CN(C)CCN(C)c1cc(C(=O)O)nc2c(-c3ccccc3O)nc(N3CCOCC3)nc12` it is 459 nM; for `COCCOc1cc(C(=O)O)nc2c(-c3cc(O)cc(F)c3)nc(N3CCOCC3)nc12` it is 93 nM. Take `O=C(O)c1cc(Cl)c2nc(N3CCOCC3)nc(-c3ccccc3)c2n1`: the IC50 came out at 678 nM. Consider `CN(C)c1cc(C(=O)O)nc2c(-c3ccc(O)cc3)nc(N3CCOCC3)nc12`, for which the IC50 amounted to 350 nM.

On to `COCCNc1cc(C(=O)O)nc2c(-c3cccc4[nH]ccc34)nc(N3CCOCC3)nc12`, for which the 50% inhibitory concentration (IC50) came to 128 nM.

As for `COc1ccccc1-c1cc(C(=O)O)nc2c(-c3cccc(O)c3)nc(N3CCOCC3)nc12`, the IC50 worked out at 24 nM. In turn, `CN(C)c1cc(C(=O)O)nc2c(-c3ccccc3O)nc(N3CCOCC3)nc12` displayed an IC50 of 23 nM.

For `CNc1cc(C(=O)O)nc2c(-c3ccc(F)cc3O)nc(N3CCOCC3)nc12`, the IC50 is 412 nM. The figure for `CC(=O)N1CCN(c2cc(C(=O)O)nc3c(-c4cccc(O)c4)nc(N4CCOCC4)nc23)CC1` is 80 nM; for `COCCNc1cc(C(=O)O)nc2c(-c3ccc(O)cc3)nc(N3CCOCC3)nc12` it is 504 nM; for `COCCN(C)c1cc(C(=O)O)nc2c(-c3cccc(CO)c3)nc(N3CCOCC3)nc12` it is 8 nM.

Regarding `COCc1cccc(-c2nc(N3CCOCC3)nc3c(NCCO)cc(C(=O)O)nc23)c1`, the IC50 is 2490 nM. The figure for `O=C(O)c1cc(-c2cccc3ccccc23)c2nc(N3CCOCC3)nc(-c3cccc(O)c3)c2n1` is 57 nM. In turn, `COCCOc1cc(C(=O)O)nc2c(-c3ccc(O)cc3)nc(N3CCOCC3)nc12` registered an IC50 of 2520 nM.

In the case of `CN(C)c1cc(C(=O)O)nc2c(-c3cccc(CO)c3)nc(N3CCOCC3)nc12`, the IC50 turned out to be 34 nM.
